{"source": "patent US11873291B2", "about": "“Quinoline cGAS antagonist compounds” (ImmuneSensor Therapeutics, Inc., priority 2020, dated 2024)", "data": [{"molecular_target": "T1, recombinant human cGAS (aa147-522) (Homo sapiens, UniProt Q8N884)", "T1 construct": "recombinant human cGAS (aa147-522); His6-SUMO (cleaved yes); made in house; host or cells: E. coli BL21/pLys", "T1 sequence (Q8N884 147-522)": "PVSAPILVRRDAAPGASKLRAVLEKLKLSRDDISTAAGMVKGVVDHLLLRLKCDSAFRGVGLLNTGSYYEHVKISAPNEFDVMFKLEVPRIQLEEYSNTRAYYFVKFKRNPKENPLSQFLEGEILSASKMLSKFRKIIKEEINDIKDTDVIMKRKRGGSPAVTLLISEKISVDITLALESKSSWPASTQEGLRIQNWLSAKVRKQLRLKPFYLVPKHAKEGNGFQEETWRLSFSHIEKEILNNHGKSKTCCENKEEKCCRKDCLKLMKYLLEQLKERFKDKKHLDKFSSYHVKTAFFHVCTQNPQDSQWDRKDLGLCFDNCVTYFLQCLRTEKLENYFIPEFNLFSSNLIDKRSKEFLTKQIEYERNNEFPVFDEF", "test": "In vitro inhibition assay of cGAS activity (ATP consumption, KinaseGlo Max)", "assay_type": "biochemical", "conditions": "Table 2, read-out: cGAS Inhibition Results IC50", "procedure,_shortened": "(§1)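 IC50 came from plotting % ATP consumption against log compound concentration, with leftover ATP detected by KinaseGlo Max chemiluminescence. Reactions ran 20 min at 37 °C with 1.5 μg/mL human cGAS (aa147-522), 6.6 μM ATP, 0.1 mM GTP and 0.01 mg/mL DNA at pH 7.5.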", "units": {"IC50": "nM"}, "values": [{"smiles": "NC(=O)c1cccc(-c2cc(-n3ccnc3)c3ccc(Cl)cc3n2)c1", "note": "[I-7, 3-(7-chloro-4-(1H-imidazol-1-yl)quinolin-2-yl)benzamide]", "IC50": "2000 to 30000"}, {"smiles": "NC(=O)CCNc1cc(-c2cn[nH]c2)c2ccc(Cl)c(Cl)c2n1", "note": "[I-190]", "IC50": "< 2000"}, {"smiles": "O=P(O)(O)Cc1cc(-n2ccnc2)c2ccc(Cl)c(Cl)c2n1", "note": "[I-251, ((7,8-dichloro-4-(1H-imidazol-1-yl)quinolin-2-yl)methyl)phosphonic acid]", "IC50": "> 30000"}, {"smiles": "O=C(O)c1cc(O)cc(-c2cc(-n3ccnc3)c3ccc(Cl)cc3n2)c1", "note": "[I-26, 3-(7-chloro-4-(1H-imidazol-1-yl)quinolin-2-yl)-5-hydroxybenzoic acid]", "IC50": "< 2000"}, {"smiles": "Nc1cccc(-c2cc(-n3ccnc3)c3ccc(Cl)cc3n2)c1", "note": "[I-8, 3-(7-chloro-4-(1H-imidazol-1-yl)quinolin-2-yl)aniline]", "IC50": "2000 to 30000"}, {"smiles": "O=C(O)Cc1ccccc1-c1cc(-n2ccnc2)c2ccc(Cl)cc2n1", "note": "[I-14]", "IC50": "> 30000"}, {"smiles": "CN(CCC(=O)NCC(N)=O)c1cc(-c2cn[nH]c2)c2ccc(Cl)c(Cl)c2n1", "note": "[I-195]", "IC50": "< 2000"}, {"smiles": "COc1c(Cl)ccc2c(NCCO)cc(-c3cn[nH]c3)nc12", "note": "[I-401]", "IC50": "> 30000"}, {"smiles": "CC(=O)OCC(=O)N1CCOC(CNc2cc(-c3cn[nH]c3)c3ccc(Cl)c(Cl)c3n2)C1", "note": "(stereo not shown) [I-400]", "IC50": "2000 to 30000"}, {"smiles": "OCC1CN(c2cc(-n3ccnc3)c3ccc(Cl)cc3n2)CCCO1", "note": "(stereo not shown) [I-99]", "IC50": "2000 to 30000"}, {"smiles": "CN(CCO)c1cc(-c2cn[nH]c2)nc2c(Cl)c(Cl)ccc12", "note": "[I-297]", "IC50": "> 30000"}, {"smiles": "NS(=O)(=O)CC1CCCN1c1cc(-n2ccnc2)c2ccc(Cl)c(Cl)c2n1", "note": "(stereo not shown) [I-148]", "IC50": "< 2000"}, {"smiles": "Brc1ccc2c(-n3ccnn3)ccnc2c1", "note": "[I-420]", "IC50": "> 30000"}, {"smiles": "CC(C)c1ccc2c(-c3cn[nH]c3)cc(NCCS(N)(=O)=O)nc2c1", "note": "[I-269]", "IC50": "> 30000"}, {"smiles": "Clc1ccc2c(-n3cncc3C3CC3)cc(-c3ccccc3)nc2c1", "note": "[I-65]", "IC50": "> 30000"}, {"smiles": "O=C(O)C1CCCN(c2cc(-n3ccnc3)c3ccc(Cl)cc3n2)C1", "note": "(stereo not shown) [I-122]", "IC50": "2000 to 30000"}, {"smiles": "CCNC(=O)[C@@H]1CCCN1c1cc(-n2ccnc2)c2ccc(Cl)c(Cl)c2n1", "note": "[I-451]", "IC50": "2000 to 30000"}, {"smiles": "NS(=O)(=O)CC1CCCCN1c1cc(-n2ccnc2)c2ccc(Cl)c(Cl)c2n1", "note": "(stereo not shown) [I-368]", "IC50": "2000 to 30000"}, {"smiles": "CC(C)[C@@H](CC(=O)O)Nc1cc(-n2ccnc2)c2ccc(Cl)c(Cl)c2n1", "note": "[I-187]", "IC50": "2000 to 30000"}, {"smiles": "COc1ccc(-c2cc(-n3ccnc3)c3ccc(Cl)c(Cl)c3n2)cc1C#N", "note": "[I-40]", "IC50": "> 30000"}, {"smiles": "O=C(CO)NC[C@@H]1CCCN1c1cc(-n2ccnc2)c2ccc(Cl)c(Cl)c2n1", "note": "[I-154, (S)—N-((1-(7,8-dichloro-4-(1H-imidazol-1-yl)quinolin-2-yl)pyrrolidin-2-yl)methyl)-2-hydroxyacetamide]", "IC50": "< 2000"}, {"smiles": "C[C@@H](CS(N)(=O)=O)Nc1cc(-n2ccnc2)c2ccc(Cl)c(Cl)c2n1", "note": "[I-206]", "IC50": "2000 to 30000"}, {"smiles": "O=C(O)C1CCN(c2cc(-n3ccnc3)c3ccc(Cl)cc3n2)C1", "note": "(stereo not shown) [I-445]", "IC50": "2000 to 30000"}, {"smiles": "Brc1ccc2c(-n3ccnc3)ccnc2c1", "note": "[I-412]", "IC50": "2000 to 30000"}, {"smiles": "NS(=O)(=O)CCNc1cc(Cl)c2ccc(Cl)c(Cl)c2n1", "note": "[I-295]", "IC50": "> 30000"}, {"smiles": "CN(CCS(=O)(=O)O)c1cc(-n2ccnc2)c2ccc(Cl)c(Cl)c2n1", "note": "[I-159]", "IC50": "< 2000"}, {"smiles": "CC(O)CN(C)c1cc(-n2ccnc2)c2ccc(Cl)c(Cl)c2n1", "note": "(stereo not shown) [I-243]", "IC50": "< 2000"}, {"smiles": "CS(=O)(=O)C1CCCN(c2cc(-n3ccnc3)c3ccc(Cl)cc3n2)C1", "note": "(stereo not shown) [I-117]", "IC50": "2000 to 30000"}, {"smiles": "CN(CCNS(C)(=O)=O)c1cc(-c2cn[nH]c2)c2ccc(Cl)c(Cl)c2n1", "note": "[I-235]", "IC50": "< 2000"}, {"smiles": "O=C(O)[C@@H]1C[C@H](O)CN1c1cc(-c2cn[nH]c2)c2ccc(Cl)c(Cl)c2n1", "note": "[I-431]", "IC50": "< 2000"}, {"smiles": "O=C(O)c1cc(-c2cc(-n3ccnc3)c3ccc(Cl)cc3n2)cs1", "note": "[I-55]", "IC50": "< 2000"}, {"smiles": "O=C(O)CNc1cc(-n2ccnc2)c2ccc(Cl)cc2n1", "note": "[I-166, (7-chloro-4-(1H-imidazol-1-yl)quinolin-2-yl)glycine]", "IC50": "2000 to 30000"}, {"smiles": "O=C(O)[C@@H]1C[C@H](Oc2ccccc2)CN1c1cc(-c2cn[nH]c2)c2ccc(Cl)c(Cl)c2n1", "note": "[I-360]", "IC50": "< 2000"}, {"smiles": "Clc1ccc2c(-n3ccnc3)cc(Nc3ccccc3)nc2c1", "note": "[I-355]", "IC50": "2000 to 30000"}, {"smiles": "O=S(=O)(O)CCN(Cc1ccccc1)c1cc(-n2ccnc2)c2ccc(Cl)c(Cl)c2n1", "note": "[I-164, 2-(benzyl(7,8-dichloro-4-(1H-imidazol-1-yl)quinolin-2-yl)amino)ethane-1-sulfonic acid]", "IC50": "2000 to 30000"}, {"smiles": "Cc1cc(N2CCS(=O)(=O)CC2)c2ccc(Cl)c(Cl)c2n1", "note": "[I-303]", "IC50": "> 30000"}, {"smiles": "O=C(O)C1CN(c2cc(-n3ccnc3)c3ccc(Cl)cc3n2)CCS1", "note": "(stereo not shown) [I-89]", "IC50": "2000 to 30000"}]}, {"molecular_target": "T1, recombinant human cGAS (aa147-522)", "test": "In vitro inhibition assay of cGAS activity (ATP consumption, KinaseGlo Max)", "assay_type": "biochemical", "conditions": "Table 3, read-out: cGAS Inhibition Results IC50", "procedure,_shortened": "as §1", "units": {"IC50": "nM"}, "values": [{"smiles": "O=C(O)C[C@@H]1CCCN1C(=O)[C@@H]1CCCN1c1cc(-n2ccnc2)c2ccc(Cl)c(Cl)c2n1", "note": "[I-553]", "IC50": "< 2000"}, {"smiles": "O=C(O)CNC(=O)O[C@@H]1C[C@@H](C(=O)O)N(c2cc(-n3ccnc3)c3ccc(Cl)c(Cl)c3n2)C1", "note": "[I-607]", "IC50": "< 2000"}, {"smiles": "CN(CCS(=O)(=O)N1CCCCC1C(=O)O)c1cc(-n2ccnc2)c2ccc(Cl)c(Cl)c2n1", "note": "(stereo not shown) [I-629]", "IC50": "< 2000"}, {"smiles": "O=C(O)[C@@H]1CCCN1C(=O)[C@@H]1CCCN1c1cc(-n2ccnc2)c2ccc(Cl)c(Cl)c2n1", "note": "[I-552]", "IC50": "< 2000"}, {"smiles": "CN(CCN(Cc1cccc(C(=O)O)c1)S(C)(=O)=O)c1cc(-n2ccnc2)c2ccc(Cl)c(Cl)c2n1", "note": "[I-636, 3-((N-(2-((7,8-dichloro-4-(1H-imidazol-1-yl)quinolin-2-yl)(methyl)amino)ethyl)methylsulfonamido)methyl)benzoic acid]", "IC50": "< 2000"}, {"smiles": "O=C(O)[C@@H]1Cc2ccccc2N1c1cc(-n2ccnc2)c2ccc(Cl)c(Cl)c2n1", "note": "[I-476]", "IC50": "2000 to 30000"}, {"smiles": "O=C(O)[C@@H]1CSCN1c1cc(-n2ccnc2)c2ccc(Cl)c(Cl)c2n1", "note": "[I-485]", "IC50": "< 2000"}, {"smiles": "CC(C)(C)OC(=O)[C@H]1CCCN1C(=O)C[C@@H]1CCCN1c1cc(-n2ccnc2)c2ccc(Cl)c(Cl)c2n1", "note": "[I-522]", "IC50": "2000 to 30000"}, {"smiles": "NC(=O)C[C@@H]1CCCN1c1cc(-n2ccnc2)c2ccc(Cl)c(Cl)c2n1", "note": "[I-603]", "IC50": "< 2000"}, {"smiles": "COC(=O)c1ccc(S(=O)(=O)NCCN(C)c2cc(-n3ccnc3)c3ccc(Cl)c(Cl)c3n2)cc1", "note": "[I-611]", "IC50": "> 30000"}, {"smiles": "O=C(C[C@@H]1CCCN1c1cc(-n2ccnc2)c2ccc(Cl)c(Cl)c2n1)NCCC(O)(C(F)(F)F)C(F)(F)F", "note": "[I-543]", "IC50": "2000 to 30000"}, {"smiles": "CN(CCS(=O)(=O)NCCCO)c1cc(-n2ccnc2)c2ccc(Cl)c(Cl)c2n1", "note": "[I-632]", "IC50": "< 2000"}, {"smiles": "O=C(O)CCOC[C@@H]1CCCN1c1cc(-c2cc[nH]n2)c2ccc(Cl)c(Cl)c2n1", "note": "[I-823]", "IC50": "> 30000"}, {"smiles": "C[C@H]1CCN(c2cc(-n3ccnc3)c3ccc(Cl)c(Cl)c3n2)[C@@H]1C(=O)O", "note": "[I-482]", "IC50": "< 2000"}, {"smiles": "Nc1ccc(-c2cc(N3CCC[C@H]3COCCC(=O)O)nc3c(Cl)c(Cl)ccc23)cn1", "note": "[I-822, (S)-3-((1-(4-(6-aminopyridin-3-yl)-7,8-dichloroquinolin-2-yl)pyrrolidin-2-yl)methoxy)propanoic acid]", "IC50": "> 30000"}, {"smiles": "O=C(O)CCO[C@@H]1CCN(c2cc(-n3ccnc3)c3ccc(Cl)c(Cl)c3n2)C1", "note": "[I-767]", "IC50": "2000 to 30000"}, {"smiles": "N[C@@H]1C[C@@H](C(=O)O)N(c2cc(-n3ccnc3)c3ccc(Cl)c(Cl)c3n2)C1", "note": "[I-519]", "IC50": "< 2000"}, {"smiles": "O=C(C[C@@H]1CCCN1c1cc(-n2ccnc2)c2ccc(Cl)c(Cl)c2n1)N[C@@H](C(=O)O)c1ccccc1", "note": "[I-528]", "IC50": "> 30000"}]}]}
